# From patent US20220016111A1, “Methods of Treating Inflammation” (The Walter and Eliza Hall Institute of Medical Research, priority 2018, published 2022)
# Entries after “also recorded” stand apart in the source; their conditions may differ.
# How the values were obtained:
# [1] = in-vivo; cited from earlier work
# [2] = in vivo, cited from earlier work
# [3] = tested on: 30 other histone or DNA methyltransferases; conditions: cited from earlier work
# EZH1 [4] = target: T1, EZH1 (Homo sapiens, UniProt Q92800); conditions: cited from earlier work
# T1 sequence (Q92800 whole entry, species assumed): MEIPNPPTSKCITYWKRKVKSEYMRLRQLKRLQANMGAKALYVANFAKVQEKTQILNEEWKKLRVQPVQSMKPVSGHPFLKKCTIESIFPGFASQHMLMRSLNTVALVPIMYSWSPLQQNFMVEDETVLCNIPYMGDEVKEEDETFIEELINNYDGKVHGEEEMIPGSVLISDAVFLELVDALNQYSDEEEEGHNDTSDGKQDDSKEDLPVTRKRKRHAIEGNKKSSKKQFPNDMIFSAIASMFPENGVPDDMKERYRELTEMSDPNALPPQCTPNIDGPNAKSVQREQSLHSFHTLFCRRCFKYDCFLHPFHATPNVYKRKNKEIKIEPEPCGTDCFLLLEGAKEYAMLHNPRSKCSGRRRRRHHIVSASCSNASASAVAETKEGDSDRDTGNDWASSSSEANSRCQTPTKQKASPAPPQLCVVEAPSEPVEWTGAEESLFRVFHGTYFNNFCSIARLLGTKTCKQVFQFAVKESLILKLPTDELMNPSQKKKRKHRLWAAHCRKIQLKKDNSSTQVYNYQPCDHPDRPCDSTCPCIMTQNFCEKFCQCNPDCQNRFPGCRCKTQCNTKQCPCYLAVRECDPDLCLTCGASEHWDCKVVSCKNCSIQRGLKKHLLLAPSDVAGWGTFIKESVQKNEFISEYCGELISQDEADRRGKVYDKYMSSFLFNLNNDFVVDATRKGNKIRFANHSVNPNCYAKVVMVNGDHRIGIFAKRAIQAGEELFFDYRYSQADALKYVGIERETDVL
# T1 sequence (O75530 whole entry partner, species assumed): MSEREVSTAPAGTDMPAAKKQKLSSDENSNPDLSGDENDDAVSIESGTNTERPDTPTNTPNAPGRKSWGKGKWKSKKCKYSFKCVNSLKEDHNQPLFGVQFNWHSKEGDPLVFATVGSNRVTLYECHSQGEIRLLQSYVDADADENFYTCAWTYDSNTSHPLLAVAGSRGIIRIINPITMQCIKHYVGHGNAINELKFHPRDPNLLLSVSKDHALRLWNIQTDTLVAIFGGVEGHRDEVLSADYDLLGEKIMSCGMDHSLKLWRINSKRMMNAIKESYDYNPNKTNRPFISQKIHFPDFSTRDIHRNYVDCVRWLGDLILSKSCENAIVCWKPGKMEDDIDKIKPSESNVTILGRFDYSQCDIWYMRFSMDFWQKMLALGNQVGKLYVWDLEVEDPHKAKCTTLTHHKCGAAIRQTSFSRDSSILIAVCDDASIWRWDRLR
# T1 sequence (Q15022 whole entry partner, species assumed): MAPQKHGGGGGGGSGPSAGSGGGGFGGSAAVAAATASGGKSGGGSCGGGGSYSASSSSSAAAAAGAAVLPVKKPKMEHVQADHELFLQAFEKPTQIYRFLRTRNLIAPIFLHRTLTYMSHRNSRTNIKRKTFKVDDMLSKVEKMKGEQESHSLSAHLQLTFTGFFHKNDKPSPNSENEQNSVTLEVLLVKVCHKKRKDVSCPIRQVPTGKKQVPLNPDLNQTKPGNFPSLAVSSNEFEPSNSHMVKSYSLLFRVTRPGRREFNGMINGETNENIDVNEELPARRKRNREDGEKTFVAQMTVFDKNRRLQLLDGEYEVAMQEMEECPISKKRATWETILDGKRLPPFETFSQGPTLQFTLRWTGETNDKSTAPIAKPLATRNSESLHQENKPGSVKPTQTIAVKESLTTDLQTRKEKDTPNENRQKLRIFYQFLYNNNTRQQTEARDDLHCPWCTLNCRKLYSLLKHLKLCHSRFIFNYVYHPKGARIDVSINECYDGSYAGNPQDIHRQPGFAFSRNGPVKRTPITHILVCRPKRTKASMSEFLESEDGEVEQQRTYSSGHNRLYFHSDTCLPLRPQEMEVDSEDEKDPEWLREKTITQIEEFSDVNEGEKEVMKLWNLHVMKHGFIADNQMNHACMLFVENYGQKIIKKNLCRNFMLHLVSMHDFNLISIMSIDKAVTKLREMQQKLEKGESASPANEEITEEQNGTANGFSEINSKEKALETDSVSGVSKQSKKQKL
# T1 sequence (Q09028 whole entry partner, species assumed): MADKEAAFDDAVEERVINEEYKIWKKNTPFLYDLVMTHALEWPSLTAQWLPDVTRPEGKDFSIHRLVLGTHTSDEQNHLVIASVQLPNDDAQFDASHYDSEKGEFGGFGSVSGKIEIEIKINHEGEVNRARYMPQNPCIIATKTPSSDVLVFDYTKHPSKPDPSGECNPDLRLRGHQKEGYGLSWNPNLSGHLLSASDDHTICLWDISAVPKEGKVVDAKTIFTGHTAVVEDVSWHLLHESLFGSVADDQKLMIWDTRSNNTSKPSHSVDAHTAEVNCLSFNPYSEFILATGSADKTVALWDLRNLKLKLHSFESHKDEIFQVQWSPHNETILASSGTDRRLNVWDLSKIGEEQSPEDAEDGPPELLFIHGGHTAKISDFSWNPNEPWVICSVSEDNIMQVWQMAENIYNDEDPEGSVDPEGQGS
# H3K27 methylation = conditions: cited from earlier work
# [5] = tested on: diffused large B-cell lymphomas cells carrying the Y641 mutations; conditions: cited from earlier work
# [6] = tested on: wild type and mutant forms of EZH2; conditions: cited from earlier work
# [7] = tested on: OVA-induced allergic inflammation; assay type: in vivo, C57BL/6 mice
# Description: (§1) Mean and SEM is shown. […] Scale bar represents 100 μm. e) Quantification of histological analysis showing the frequency of PAS^+ cells and the Inflammation Score. Mean and SEM are shown for n=8 per group. […] Mean and SEM are shown for n=5 (Vehicle), n=4 (each GSK dose).
# Mean and SEM as well as individual data points are shown. n=4 each group. Data was statistically tested by 1-way ANOVA with Dunnet's post-hoc test.
# (§2) Mice were immunized with an intraperitoneal injection of 200 μL Alum/OVA containing 20 μg low-endotoxin ovalbumin (Worthington) and 2.25 mg aluminium hydroxide (Sigma) in sterile PBS on day 0 and day 7. Mice were then rested for a minimum of 2 weeks and then challenged daily for 4 days with nebulized 2% (w/v) ovalbumin (Sigma) in PBS for 15 min. The day after the final challenge (or at a time-point described in the text), mice were sacrificed and bronchoalveolar lavage (250 μL×2 with sterile PBS) was performed from which cellular infiltrate was analysed by flow cytometry and acellular BAL fluid was analysed by Bio-Plex Pro™ cytokine assay (Biorad). Lung tissue was then fixed by inserting 1 mL of 10% formalin via the trachea into the lungs leaving to set in situ for at least 30 min. The mid-section of the left lobe was then excised and placed in liquid formalin for a further 24 h prior to paraffin embedding, sectioning and staining with Periodic acid-Schiff (PAS) and Haematoxylin and Eosin (H&E) stains. Stained slides were imaged using an Aperio Digital Pathology Slide Scanner and quantitated by counting PAS positive epithelial cells and scoring leukocyte infiltration in H&E stained sections according to the scoring chart (FIG. 16). Scores from at least five 20× magnification fields of each stain were averaged for each mouse.
# Lung function was assessed by the forced oscillation technique using a FlexiVent system with FX1 module (Scireq, Montreal, Canada). Mice were anaesthetized with ketamine (150 mg/kg) and xylazine (15 mg/kg) then cannulated by tracheostomy with ligation. Baseline respiratory mechanics were recorded, followed by aerosolized saline then increasing doses of methacholine (MCh) (0.1-30 mg/mL). Respiratory impedance (Zrs) was measured and partitioned into airway and parenchymal components through fitting to the Constant Phase Model from which Newtonian resistance (Rn; equivalent to airway resistance) was calculated.
# Total IgE and OVA-specific IgE were measured by enzyme-linked immunosorbent assay (ELISA). Briefly, 96 well plates were coated with either Rat anti-mouse IgE (to measure total IgE; Southern Biotech clone #23G2, cat #1130-01) or OVA protein (for OVA-specific IgE) in PBS overnight. Samples were diluted (total IgE 1:50-1:200 and OVA-specific IgE 1:50-1:100 based on pilot assays), and incubated in duplicate, prior to incubation with GAM Fc-specific polyclonal anti-IgE-HRP and colorimetric detection using TMB substrate (Thermo Scientific #34028), measuring absorbance at 450 nm. Absorbance values were converted to total IgE levels by reference to a mouse IgE anti-DNP (clone SPE-7) standard curve (0.1 ng/mL-1 μg/mL) which was included on the same plate. OVA-specific IgE absorbance was expressed relative to a reference OVA-immunized WT mouse which was selected prior to measurement. All ELISAs were performed blinded to treatment and genotype.
# [8] = tested on: 20 other methyltransferases; conditions: cited from earlier work
# [9] = tested on: activated C57BL/6 mouse CD4+ T cells; test: Survival/expansion of activated CD4+ T cells in vitro; assay type: cell-based; conditions: anti-CD3 and anti-CD28 activation, three days
# Text: as §1
# Nave CD4^+ T cells were isolated from a single-cell suspension from mouse spleen by MACS isolation kit (Miltenyi Biotech). Cells were labelled with CellTrace™ Violet (CTV, Thermo Fisher) then activated in 96 well plates pre-coated with anti-CD3 (10 μg/mL) and anti-CD28 (5 μg/mL) in RPMI-1640 medium supplemented with 10% heat-inactivated fetal bovine serum, 2 mM GlutaMAX™ and 0.05 mM β-mercaptoethanol.
# [10] = tested on: established allergic inflammation; test: Established OVA inflammation, single dose of GSK126; assay type: in vivo, C57BL/6 mice; conditions: single dose 150 mg/kg oral gavage on day 5, assessed 3 days later
# Description: CD4+ and CD8+ T cells were first gated by CD11b−GR1−TCRβ+. Neutrophils were gated by CD11bHiGR1Hi. Eosinophils were gated by CD11b+CD11c−SiglecF+. Mean and SEM are shown. n=2 Alum-sensitized vehicle treated controls shown for comparative purposes. OVA-sensitized groups were statistically compared by Student's t test.
# as §2, with “The mid-section of the left lobe was then excised and placed in liquid formalin for a further 24 h prior to paraffin embedding, sectioning and staining with Periodic acid-Schiff (PAS) and Haematoxylin and Eosin (H&E) stains.” left out, “Scores from at least five 20× magnification fields of each stain were averaged for each mouse.” left out
# EZH1 [11] = target: T1, EZH1; conditions: cited from earlier work; remark: listed apart in the source
# [12] = tested on: established allergic inflammation; test: Established OVA inflammation, three doses of GSK126; assay type: in vivo, C57BL/6 mice
# Description: Data shown representative of n=5 OVA/Vehicle (Veh) and OVA/GSK groups, n=2 unchallenged controls (Con) shown for reference purposes. c) Quantification of b. Mean and SEM shown. Group sizes as in b. […] Scale bar represents 100 μm. f) Quantification of PAS^+ cells and Inflammation Score. Mean and SEM shown. Group sizes as in b. Statistical analysis by 1-way ANOVA with Holm-Sidak post-hoc.
# as §2
# The therapeutic regime was then extended to three doses (day 5, 8 and 10) after establishing inflammation by OVA challenge on days 1-4, and airway inflammation assessed on day 11 (FIG. 15a).
# tumours = conditions: mouse models; cited from earlier work
# MLL-rearranged leukemia = conditions: in-vitro and in vivo; cited from earlier work
# [13] = 75 mg/kg, compared with vehicle
# [14] = 150 mg/kg oral gavage, each day of OVA challenge
# [15] = after OVA challenge and GSK126 administration
# [16] = 150 mg/kg on day 5, 8 and 10, assessed day 11
compound,measurement,setting,value
CCS(=O)(=O)N1CCC([C@@H](C)n2c(C)c(C(=O)NCc3c(OC)cc(C)[nH]c3=O)c3ccccc32)CC1 [CPI-169],antitumor activity and PD target engagement,[1],demonstrated antitumor activity and PD target engagement
same,oral bioavailability,[2],limited oral bioavailability
COc1cc(C)[nH]c(=O)c1CNC(=O)c1c(C)n([C@H](C)C2CCN(CC(F)(F)F)CC2)c2ccccc12 [CPI-1205],selectivity against 30 other histone or DNA methyltransferases,[3],selectivity
same,selectivity for EZH2 over EZH1,EZH1 [4],modest selectivity
same,oral bioavailability,[2],orally bioavailable
CCC(CC)n1ccc2c(C(=O)NCc3c(C)cc(C)[nH]c3=O)cc(C#N)cc21 [EI1],H3K27 methylation and PRC2 target genes in treated cells,H3K27 methylation,genome-wide loss of H3K27 methylation and activation of PRC2 target genes
same,effect on lymphoma cells,[5],"decreased proliferation, cell cycle arrest, and apoptosis"
Cc1cc(C)c(CNC(=O)c2cc(-c3ccc(CN4CCOCC4)cc3)cc3c2cnn3C2CCCC2)c(=O)[nH]1 [EPZ 005687],affinity and selectivity for EZH2,[6],high affinity and selectivity
same,pharmacokinetic properties,[2],suboptimal
CC[C@H](C)n1cc(C)c2c(C(=O)NCc3c(C)cc(C)[nH]c3=O)cc(-c3ccc(N4CCNCC4)nc3)cc21 [GSK126],BAL cells,[7]; [13],no effect
same,PAS staining,[7]; [13],no effect
same,lung tissue inflammation,[7]; [13],no effect
same,PAS+ mucous-producing epithelial cells,[7]; 150 mg/kg,similarly reduced
same,levels of inflammation in the lung tissue,[7]; 150 mg/kg,similarly reduced
same,BAL T cells,[7]; [14],dramatic reduction
same,BAL eosinophils,[7]; [14],dramatic reduction
same,BAL neutrophils,[7]; [14],dramatic reduction
same,total BAL leukocytes,[7]; [14],dramatic reduction
same,OVA-induced airway hyperresponsiveness,"[7]; 150 mg/kg, methacholine",complete protection
same,OVA-specific IgE in serum,[7]; [15],unchanged
same,total IgE in serum,[7]; [15],unchanged
same,systemic effects,"[7]; mouse, in vivo",did not observe any systemic effects
same,increased potency compared to 20 other methyltransferases,[8],> 1000 fold
same,number of cells recovered in the culture compared to vehicle control,[9],dose-dependent effect
same,BAL granulocyte numbers,[10],did not alter
same,BAL CD4+ T cell numbers,[10]; 150 mg/kg,reduced; also recorded: selectively reduces
same,increased potency compared to EZH1,EZH1 [11],150 fold
same,BAL B cells,[12]; [16],significantly reduced
same,BAL CD4+ T cells,[12]; [16],significantly reduced
same,BAL eosinophils,[12]; [16],significantly reduced
same,PAS+ mucous-producing cells,[12]; [16],reduced
same,airway inflammation,[12]; [16],reduced
same,total BAL cells,[12]; [16],significantly reduced
same,lung inflammation levels (all groups),[12]; 7 days after final OVA challenge,statistically indistinguishable
same,growth of tumours,tumours,suppress the growth of tumours
CCN(c1cc(-c2ccc(CN3CCOCC3)cc2)cc(C(=O)NCc2c(C)cc(C)[nH]c2=O)c1C)C1CCOCC1 [Tazemetostat],oral bioavailability,[2],orally bioavailable
CCCc1cc(C)[nH]c(=O)c1CNC(=O)c1cc(-c2ccc(N3CCN(C(C)C)CC3)nc2)cc2c1cnn2C(C)C [UNC 1999],growth of MLL-rearranged leukemia,MLL-rearranged leukemia,inhibit growth
